Patent US6479435B1, “Diaryl ethers and processes for their preparation and herbicidal and desiccant compositions containing them” (ISK Americas Incorporated, priority 1997, dated 2002)

Experiments:
Assay type in all cases: in vivo
[1] = test system: Johnsongrass (Sorghum halepense, SORHA); test: Pre-emerge greenhouse herbicide test, phytotoxicity rating; conditions: 14 days after application, rating scale 0-100
Description: (§1) A standard greenhouse herbicide activity screening system was used to evaluate the herbicidal efficacy and crop safety of these test compounds. Six broadleaf weed species including redroot pigweed (Amaranthus retroflexus, AMARE), velvetleaf (Abutilon theophrasti, ABUTH), sicklepod (Cassia obtusifolia, CASOB), ivyleaf morningglory (Ipomoea hederacea, IPOHE), lambsquarters (Chenopodium album, CHEAL) and common ragweed (Ambrosia artemisiifolia L., AMBEL) were used as test species. Four grass weed species including green foxtail (Setaria viridis, SETVI), barnyardgrass (Echinochloa crusgalli, ECHCG), Johnsongrass (Sorghum halepense, SORHA), and large crabgrass (Digitaria sanguinalis, DIGSA) were also used. In addition, three crop species, field corn (Zea mays L., var. Dekalb 535, CORN), soybean (Glycine max L., var. Pella 86, SOY), and upland rice (Oryza sp., var.Tebonnet, RICE) were included.
(§2) All plants were grown in 10 cm square plastic pots which were filled with a sandy loam soil mix. For preemerge tests, seeds were planted one day prior to application of the test compounds. Immediately after application, test units of the pre-emerge applications were watered at the soil surface to incorporate the test materials. Subsequently, these test units were bottom-watered.
(§3) All test compounds were dissolved in acetone and applied to the test units in a volume of 187 l/ha. Test materials were applied at rates ranging from 125 g ai/ha to 1000 g ai/ha using a track sprayer equipped with a TJ8001E even flow flat fan spray nozzle. Plants were arranged on a shelf so that the top of the canopy (post-emerge) or top of the soil surface (pre-emerge) was 40-45 cm below the nozzle. Pressurized air was used to force the test solution through the nozzle as it was mechanically advanced (via electrically driven chain drive) over the top of all test plants/pots. This application simulates a typical commercial field herbicide application.
(§4) At 14 days after application of the test materials, phytotoxicity ratings were recorded. A rating scale of 0-100 was used as previously described in Research Methods in Weed Science, 2nd edition, B. Truelove, Ed., Southern Weed Science Society, Auburn University, Auburn, Ala., 1977. Briefly, “0” corresponds to no damage and “100” corresponds to complete death of all plants in the test unit. This scale was used both to determine efficacy against weed species and damage to crop species. Herbicide activity data for various compounds of this invention, which are shown by compound number in Tables 1-9, are shown in Tables 13 and 14.

[2] = test system: barnyardgrass (Echinochloa crusgalli, ECHCG); test: as above; conditions: 14 days after application, rating scale 0-100
Description: as §1, §2, §3, §4

[3] = test system: green foxtail (Setaria viridis, SETVI); test: as above; conditions: 14 days after application, rating scale 0-100
Description: as §1, §2, §3, §4

[4] = test system: ivyleaf morningglory (Ipomoea hederacea, IPOHE); test: as above; conditions: 14 days after application, rating scale 0-100
Description: as §1, §2, §3, §4

[5] = test system: lambsquarters (Chenopodium album, CHEAL); test: as above; conditions: 14 days after application, rating scale 0-100
Description: as §1, §2, §3, §4

[6] = test system: large crabgrass (Digitaria sanguinalis, DIGSA); test: as above; conditions: 14 days after application, rating scale 0-100
Description: as §1, §2, §3, §4

[7] = test system: redroot pigweed (Amaranthus retroflexus, AMARE); test: as above; conditions: 14 days after application, rating scale 0-100
Description: as §1, §2, §3, §4

[8] = test system: sicklepod (Cassia obtusifolia, CASOB); test: as above; conditions: 14 days after application, rating scale 0-100
Description: as §1, §2, §3, §4

[9] = test system: velvetleaf (Abutilon theophrasti, ABUTH); test: as above; conditions: 14 days after application, rating scale 0-100
Description: as §1, §2, §3, §4

[10] = test system: field corn (Zea mays L., var. Dekalb 535, CORN); test: Pre-emerge greenhouse test, crop damage rating; conditions: 14 days after application, rating scale 0-100
How it was run: (§5)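 Seeds sown in sandy loam one day before track-sprayer application of acetone solutions at 125–1000 g ai/ha (187 l/ha), then surface-watered to incorporate and bottom-watered. Injury scored visually at 14 days on a 0–100 scale (0 no damage, 100 complete death).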

[11] = test system: upland rice (Oryza sp., var.Tebonnet, RICE); test: Pre-emerge greenhouse test, crop damage rating; conditions: 14 days after application, rating scale 0-100
How it was run: as §5

[12] = test system: soybean (Glycine max L., var. Pella 86, SOY); test: Pre-emerge greenhouse test, crop damage rating; design: key to SOY crop damage rating: 0 = no damage, 100 = complete death of all plants; conditions: 14 days after application, rating scale 0-100
How it was run: as §5

[13] = test system: Johnsongrass (Sorghum halepense, SORHA); test: Post-emerge greenhouse herbicide test, phytotoxicity rating; conditions: 14 days after application, scale 0-100
How it was run: (§6)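 Plants at the 2-3 leaf stage, sown 8-21 days earlier, were track-sprayed post-emergence with compound in acetone plus 0.25% v/v non-ionic surfactant at 63-1000 g ai/ha (187 l/ha). Damage was rated at 14 days on a 0-100 scale (0 none, 100 all plants dead), for both crop injury and weed control.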

[14] = test system: barnyardgrass (Echinochloa crusgalli, ECHCG); test: as above; conditions: 14 days after application, scale 0-100
How it was run: as §6

[15] = test system: green foxtail (Setaria viridis, SETVI); test: as above; conditions: 14 days after application, scale 0-100
How it was run: as §6

[16] = test system: ivyleaf morningglory (Ipomoea hederacea, IPOHE); test: as above; conditions: 14 days after application, scale 0-100
How it was run: as §6

[17] = test system: lambsquarters (Chenopodium album, CHEAL); test: as above; conditions: 14 days after application, scale 0-100
How it was run: as §6

[18] = test system: large crabgrass (Digitaria sanguinalis, DIGSA); test: as above; conditions: 14 days after application, scale 0-100
How it was run: as §6

[19] = test system: redroot pigweed (Amaranthus retroflexus, AMARE); test: as above; conditions: 14 days after application, scale 0-100
How it was run: as §6

[20] = test system: sicklepod (Cassia obtusifolia, CASOB); test: as above; conditions: 14 days after application, scale 0-100
How it was run: as §6

[21] = test system: velvetleaf (Abutilon theophrasti, ABUTH); test: as above; conditions: 14 days after application, scale 0-100
How it was run: as §6

[22] = test system: field corn (Zea mays L., var. Dekalb 535, CORN); test: Post-emerge greenhouse test, crop damage rating; conditions: 14 days after application, scale 0-100
How it was run: as §6

[23] = test system: upland rice (Oryza sp., var.Tebonnet, RICE); test: Post-emerge greenhouse test, crop damage rating; conditions: 14 days after application, scale 0-100
How it was run: as §6

[24] = test system: soybean (Glycine max L., var. Pella 86, SOY); test: Post-emerge greenhouse test, crop damage rating; design: key to crop damage rating SOY: 0-100 scale: 0 = no damage, 100 = complete death of all plants; conditions: 14 days after application, scale 0-100
How it was run: as §6

Nn1c(C(F)(F)F)cc(=O)n(-c2cc(Oc3cccc(F)n3)c(Cl)cc2F)c1=O [Compound 9-4, 1-Amino-3-[4-chloro-2-fluora-5-(6-fluoro-2-pyridyloxy)phenyl]-6-trifluoromethyl-1,2,3,4-tetrahydropyrimidine-2,4-dione]
SORHA phytotoxicity rating ([1]; Rate 125 g al/ha): 99
SORHA phytotoxicity rating ([1]; Rate 500 g al/ha): 100
ECHCG phytotoxicity rating ([2]; Rate 125 g al/ha): 100
ECHCG phytotoxicity rating ([2]; Rate 500 g al/ha): 100
SETVI phytotoxicity rating ([3]; Rate 125 g al/ha): 100
SETVI phytotoxicity rating ([3]; Rate 500 g al/ha): 100
IPOHE phytotoxicity rating ([4]; Rate 125 g al/ha): 100
IPOHE phytotoxicity rating ([4]; Rate 500 g al/ha): 100
CHEAL phytotoxicity rating ([5]; Rate 125 g al/ha): 100
CHEAL phytotoxicity rating ([5]; Rate 500 g al/ha): 100
DIGSA phytotoxicity rating ([6]; Rate 125 g al/ha): 100
DIGSA phytotoxicity rating ([6]; Rate 500 g al/ha): 100
AMARE phytotoxicity rating ([7]; Rate 125 g al/ha): 100
AMARE phytotoxicity rating ([7]; Rate 500 g al/ha): 100
CASOB phytotoxicity rating ([8]; Rate 125 g al/ha): 60
CASOB phytotoxicity rating ([8]; Rate 500 g al/ha): 100
ABUTH phytotoxicity rating ([9]; Rate 125 g al/ha): 100
ABUTH phytotoxicity rating ([9]; Rate 500 g al/ha): 100
CORN crop damage rating ([10]; Rate 125 g al/ha): 60
CORN crop damage rating ([10]; Rate 500 g al/ha): 95
RICE crop damage rating ([11]; Rate 125 g al/ha): 40
RICE crop damage rating ([11]; Rate 500 g al/ha): 99
SOY crop damage rating ([12]; Rate 125 g al/ha): 80
SOY crop damage rating ([12]; Rate 500 g al/ha): 95
phytotoxicity rating SORHA ([13]; rate 63 g ai/ha): 70
phytotoxicity rating SORHA ([13]; rate 500 g ai/ha): 98
phytotoxicity rating ECHCG ([14]; rate 63 g ai/ha): 70
phytotoxicity rating ECHCG ([14]; rate 500 g ai/ha): 100
phytotoxicity rating SETVI ([15]; rate 63 g ai/ha): 30
phytotoxicity rating SETVI ([15]; rate 500 g ai/ha): 95
phytotoxicity rating IPOHE ([16]; rate 63 g ai/ha): 100
phytotoxicity rating IPOHE ([16]; rate 500 g ai/ha): 100
phytotoxicity rating CHEAL ([17]; rate 63 g ai/ha): 80
phytotoxicity rating CHEAL ([17]; rate 500 g ai/ha): 100
phytotoxicity rating DIGSA ([18]; rate 63 g ai/ha): 10
phytotoxicity rating DIGSA ([18]; rate 500 g ai/ha): 95
phytotoxicity rating AMARE ([19]; rate 63 g ai/ha): 95
phytotoxicity rating AMARE ([19]; rate 500 g ai/ha): 100
phytotoxicity rating CASOB ([20]; rate 63 g ai/ha): 90
phytotoxicity rating CASOB ([20]; rate 500 g ai/ha): 100
phytotoxicity rating ABUTH ([21]; rate 63 g ai/ha): 100
phytotoxicity rating ABUTH ([21]; rate 500 g ai/ha): 100
crop damage rating CORN ([22]; rate 63 g ai/ha): 40
crop damage rating CORN ([22]; rate 500 g ai/ha): 80
crop damage rating RICE ([23]; rate 63 g ai/ha): 50
crop damage rating RICE ([23]; rate 500 g ai/ha): 70
crop damage rating SOY ([24]; rate 63 g ai/ha): 95
crop damage rating SOY ([24]; rate 500 g ai/ha): 100

Nn1c(C(F)(F)F)cc(=O)n(-c2cc(Oc3cccc(C(F)(F)F)c3)c(Cl)cc2F)c1=O [Compound 9-25, 1-Amino-3-[4-chloro-2-fluoro-5-(3-trifluoromethylphenoxy)phenyl]-6-trifluoro-methyl-1,2,3,4-tetrahydropyrimidine-2,4-dione]
SORHA phytotoxicity rating ([1]; Rate 125 g al/ha): 80
SORHA phytotoxicity rating ([1]; Rate 500 g al/ha): 100
ECHCG phytotoxicity rating ([2]; Rate 125 g al/ha): 70
ECHCG phytotoxicity rating ([2]; Rate 500 g al/ha): 95
SETVI phytotoxicity rating ([3]; Rate 125 g al/ha): 100
SETVI phytotoxicity rating ([3]; Rate 500 g al/ha): 100
IPOHE phytotoxicity rating ([4]; Rate 125 g al/ha): 70
IPOHE phytotoxicity rating ([4]; Rate 500 g al/ha): 90
CHEAL phytotoxicity rating ([5]; Rate 125 g al/ha): 100
CHEAL phytotoxicity rating ([5]; Rate 500 g al/ha): 100
DIGSA phytotoxicity rating ([6]; Rate 125 g al/ha): 80
DIGSA phytotoxicity rating ([6]; Rate 500 g al/ha): 100
AMARE phytotoxicity rating ([7]; Rate 125 g al/ha): 100
AMARE phytotoxicity rating ([7]; Rate 500 g al/ha): 100
CASOB phytotoxicity rating ([8]; Rate 125 g al/ha): 30
CASOB phytotoxicity rating ([8]; Rate 500 g al/ha): 80
ABUTH phytotoxicity rating ([9]; Rate 125 g al/ha): 100
ABUTH phytotoxicity rating ([9]; Rate 500 g al/ha): 100
CORN crop damage rating ([10]; Rate 125 g al/ha): 20
CORN crop damage rating ([10]; Rate 500 g al/ha): 40
RICE crop damage rating ([11]; Rate 125 g al/ha): 40
RICE crop damage rating ([11]; Rate 500 g al/ha): 90
SOY crop damage rating ([12]; Rate 125 g al/ha): 50
SOY crop damage rating ([12]; Rate 500 g al/ha): 80
phytotoxicity rating SORHA ([13]; rate 63 g ai/ha): 10
phytotoxicity rating SORHA ([13]; rate 500 g ai/ha): 70
phytotoxicity rating ECHCG ([14]; rate 63 g ai/ha): 10
phytotoxicity rating ECHCG ([14]; rate 500 g ai/ha): 0
phytotoxicity rating SETVI ([15]; rate 63 g ai/ha): 30
phytotoxicity rating SETVI ([15]; rate 500 g ai/ha): 80
phytotoxicity rating IPOHE ([16]; rate 63 g ai/ha): 100
phytotoxicity rating IPOHE ([16]; rate 500 g ai/ha): 100
phytotoxicity rating CHEAL ([17]; rate 63 g ai/ha): 100
phytotoxicity rating CHEAL ([17]; rate 500 g ai/ha): 100
phytotoxicity rating DIGSA ([18]; rate 63 g ai/ha): 0
phytotoxicity rating DIGSA ([18]; rate 500 g ai/ha): 60
phytotoxicity rating AMARE ([19]; rate 63 g ai/ha): 100
phytotoxicity rating AMARE ([19]; rate 500 g ai/ha): 100
phytotoxicity rating CASOB ([20]; rate 63 g ai/ha): 50
phytotoxicity rating CASOB ([20]; rate 500 g ai/ha): 100
phytotoxicity rating ABUTH ([21]; rate 63 g ai/ha): 95
phytotoxicity rating ABUTH ([21]; rate 500 g ai/ha): 100
crop damage rating CORN ([22]; rate 63 g ai/ha): 15
crop damage rating CORN ([22]; rate 500 g ai/ha): 35
crop damage rating RICE ([23]; rate 63 g ai/ha): 5
crop damage rating RICE ([23]; rate 500 g ai/ha): 35
crop damage rating SOY ([24]; rate 63 g ai/ha): 60
crop damage rating SOY ([24]; rate 500 g ai/ha): 80
